Patent US20250268166A1, “ALS-INHIBITOR HERBICIDE TOLERANT BETA VULGARIS HYBRIDS WITH INCREASED HETEROSIS” (BAYER AKTIENGESELLSCHAFT, priority 2021, published 2025)

Test system: B. vulgaris plants comprising the BvALS_W569L allele
Test: Sensitivity of B. vulgaris plants to ALS inhibitor herbicide (BvALS_W569L allele vs wild type allele)
Assay type: in vivo, Beta vulgaris
From the text: Beta vulgaris plants comprising the BvALS_W569L allele are less sensitive to an ALS inhibitor, more preferably it is at least 100 times less sensitive, more preferably, 500 times, even more preferably 1000 times and most preferably […] 2000 times than Beta vulgaris plants comprising the wild-type allele. Less sensitive when used herein may, vice versa, be seen as “more tolerable” or “more resistant”. Similarly, “more tolerable” or “more resistant” may, vice versa, be seen as “less sensitive”. For example, B. vulgaris plants comprising the BvALS_W569L allele are at least 2000 times less sensitive to the ALS inhibitor herbicide foramsulfuron (a member of the ALS inhibitor subclass “sulfonylurea herbicides”) compared to B. vulgaris plants comprising a BvALS wild type allele.

Structure (SMILES): COc1cc(OC)nc(NC(=O)NS(=O)(=O)c2cc(NC=O)ccc2C(=O)N(C)C)n1 [foramsulfuron]
- times less sensitive to the ALS inhibitor herbicide compared to B. vulgaris plants comprising a BvALS wild type allele: at least 2000 times
